Experimental data taken from ChEMBL document CHEMBL2321756, “From a cytotoxic agent to the discovery of a novel antimalarial agent” (Bioorg Med Chem Lett, 2013).

Key:
[1] = Metabolic stability in human Caco2/TC7 cells at 50 uM up to 2 hrs; assay type: ADME, cell-based; settings: caco-2, 2 h
[2] = Apparent permeability across apical to basolateral side in human Caco2/TC7 cells at 50 uM after 2 hrs; assay type: ADME, cell-based; settings: Caco-2
Erythrocyte [3] = experiment: Reduction of glutathione level in Wistar rat RBC at 25 ug/mL measured at 120 mins relative to untreated control; assay type: functional; design: scale not given: the % may be the effect or the level left
Erythrocyte [4] = experiment: Reduction of glutathione level in Wistar rat RBC at 25 ug/mL measured at 90 mins relative to untreated control; assay type: functional; design: scale not given: the % may be the effect or the level left
Erythrocyte [5] = experiment: Reduction of glutathione level in Wistar rat RBC at 25 ug/mL measured at 60 mins relative to untreated control; assay type: functional; design: scale not given: the % may be the effect or the level left
Erythrocyte [6] = experiment: Reduction of glutathione level in Wistar rat RBC at 25 ug/mL measured at 15 mins relative to untreated control; assay type: functional; design: scale not given: the % may be the effect or the level left
Erythrocyte [7] = experiment: Reduction of glutathione level in Wistar rat RBC at 25 ug/mL measured at 30 mins relative to untreated control; assay type: functional; design: scale not given: the % may be the effect or the level left
Erythrocyte [8] = experiment: Reduction of glutathione level in Wistar rat RBC at 25 ug/mL measured at 5 mins relative to untreated control; assay type: functional; design: scale not given: the % may be the effect or the level left
[9] = Drug uptake in Wistar rat RBC at 25 ug/mL up to 2 hrs; assay type: ADME, cell-based; settings: erythrocyte
[10] = Drug uptake in Wistar rat RBC at 25 ug/mL; assay type: ADME, cell-based; settings: erythrocyte
Plasmodium falciparum [11] = experiment: Selectivity ratio of IC50 for Plasmodium falciparum C235 to IC50 for Plasmodium falciparum D6; assay type: functional
Plasmodium falciparum [12] = experiment: Antimalarial activity against Plasmodium falciparum C235 containing mdr1 transporter gene assessed as growth inhibition after 72 hrs by SYBR Green 1-based fluorescence assay; assay type: functional, organism-based; settings: C235, MDR1, 72 h
Plasmodium falciparum [13] = experiment: Antimalarial activity against Plasmodium falciparum D6 assessed as growth inhibition after 72 hrs by SYBR Green 1-based fluorescence assay; assay type: functional, organism-based; settings: D6, 72 h
[14] = Apparent permeability across apical to basolateral side in human Caco2/TC7 cells after 2 hrs; assay type: ADME, cell-based; settings: Caco-2

Row | Stability [1] | Papp A→B at 2 h, 50 µM [2] [×10⁻⁶ cm/s] | Drug uptake [9] [%] | Drug uptake [10] [%] | Papp A→B at 2 h [14] [×10⁻⁶ cm/s] | SMILES | Activity (Erythrocyte [3]) [%] | Activity (Erythrocyte [4]) [%] | Activity (Erythrocyte [5]) [%] | Activity (Erythrocyte [6]) [%] | Activity (Erythrocyte [7]) [%] | Activity (Erythrocyte [8]) [%] | Ratio IC50 (Plasmodium falciparum [11]) | IC50 (Plasmodium falciparum [12]) [nM] | IC50 (Plasmodium falciparum [13]) [nM]
1 | Stable | 1.2 | 80 | 75 | – | Cl.O=C1/C(=C/c2ccc(Cl)cc2)CN(C(=O)c2ccc(OCCN3CCOCC3)cc2)C/C1=C\c1ccc(Cl)cc1 | 10.9 | 7.51 | 8.95 | 12.3 | 12.9 | 12.6 | 3.3 | 1970 | 600
2 | – | – | – | – | – | O[C@@H](c1cc(C(F)(F)F)nc2c(C(F)(F)F)cccc12)[C@H]1CCCCN1 [(S,R)-MEFLOQUINE] | – | – | – | – | – | – | – | 50 | –
3 | – | – | – | – | 29.9 | COCCc1ccc(OCC(O)CNC(C)C)cc1 (stereo not given) [METOPROLOL] | – | – | – | – | – | – | – | – | –
